In the supplement of paper PMC8671470 one finds cell viability data, which are given here for four compounds.

Structures are written as SMILES.

Common to all, as to test: cell viability (% survival relative to DMSO control, bortezomib = 0%); higher = less cytotoxic
Common to all, as to settings: 72 h

Experiment [1] relates to MV4-11. In short, it runs like this: (§1)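 Seeding density for each of the 10 AML and 5 CML cell lines was titrated to the linear growth range. Cells went into 384-well plates pre-printed in duplicate with compounds at 1, 10, 100, 1000 or 10000 nM and were held for 72 h at 37 °C with 5% CO2. CellTiter-Glo luminescence then provided the readout. Percent survival is expressed relative to vehicle at 100% and a 10 µM positive control at 0%, averaged over duplicates.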

The test system of experiment [2] is BV-173. In short, it runs like this:
as §1

Experiment [3] deals with K-562. The essentials:
as §1

Experiment [4] relates to Mono-Mac-6. In short, it runs like this:
as §1

`NC(=O)c1ncn([C@@H]2O[C@H](CO)[C@@H](O)[C@H]2O)n1` [Ribavirin]: the cell viability came out at 110% in experiment [1] (1 nM); 92.1% in experiment [1] (10 nM); 89.8% in experiment [1] (100 nM); 137% in experiment [1] (1000 nM); 81.8% in experiment [1] (10000 nM); 93.7% in experiment [2] (1 nM). Besides, the cell viability in experiment [2] (10 nM) was 106%; in experiment [2] (100 nM), 112%; in experiment [2] (1000 nM) it was 101%; in experiment [2] (10000 nM), 91.4%; in experiment [3] (1 nM) it was 82.4%; in experiment [3] (10 nM), 95.1%. Besides, the cell viability is 119% in experiment [3] (100 nM); 107% in experiment [3] (1000 nM); 103% in experiment [3] (10000 nM); 92.1% in experiment [4] (1 nM); 103% in experiment [4] (10 nM); 96.4% in experiment [4] (100 nM). The cell viability in experiment [4] (1000 nM) worked out at 101%; in experiment [4] (10000 nM), 112%.

`CCN(CC)CCN(Cc1ccc(-c2ccc(C(F)(F)F)cc2)cc1)C(=O)Cn1c(SCc2ccc(F)cc2)nc(=O)c2c1CCC2` [Darapladib]: the cell viability in experiment [1] (1 nM) was 88.5%; in experiment [1] (10 nM), 104%; in experiment [1] (100 nM) it was 87.8%; in experiment [1] (1000 nM), 102%; in experiment [1] (10000 nM) it was -0.522%; in experiment [2] (1 nM), 100%. Also, the cell viability is 88.7% in experiment [2] (10 nM); 94.3% in experiment [2] (100 nM); 79.1% in experiment [2] (1000 nM); -0.184% in experiment [2] (10000 nM); 99.1% in experiment [3] (1 nM); 122% in experiment [3] (10 nM). Moreover, the cell viability was 81.6% in experiment [3] (100 nM); 73.6% in experiment [3] (1000 nM); -0.273% in experiment [3] (10000 nM); 97% in experiment [4] (1 nM); 90.9% in experiment [4] (10 nM); 101% in experiment [4] (100 nM). Further, the figures for the cell viability in experiment [4] (1000 nM) and in experiment [4] (10000 nM) were 93.3% and -0.318%, respectively.

As for `Oc1cc(Cl)ccc1Oc1ccc(Cl)cc1Cl` [Triclosan], the cell viability in experiment [1] (1 nM) stood at 110%; in experiment [1] (10 nM), 82.5%; in experiment [1] (100 nM) it was 104%; in experiment [1] (1000 nM), 93.7%; in experiment [1] (10000 nM), 82.1%; in experiment [2] (1 nM), 98%. The cell viability in experiment [2] (10 nM) turned out to be 120%; in experiment [2] (100 nM), 107%; in experiment [2] (1000 nM), 98.4%; in experiment [2] (10000 nM) it was 105%; in experiment [3] (1 nM), 103%; in experiment [3] (10 nM), 105%. Also, the cell viability in experiment [3] (100 nM) turned out to be 93.8%; in experiment [3] (1000 nM), 106%; in experiment [3] (10000 nM), 66.6%; in experiment [4] (1 nM), 94.5%; in experiment [4] (10 nM), 98.3%; in experiment [4] (100 nM), 101%. Also, the cell viability in experiment [4] (1000 nM) worked out at 116%; in experiment [4] (10000 nM), 97.2%.

In the case of `CC12CCC(O)CC1CCC1C2CCC2(C)C(C3=CC(=O)OC3)CCC12O` (stereo not given) [Digitoxigenin], the cell viability is 96.8% in experiment [1] (1 nM); 120% in experiment [1] (10 nM); 100% in experiment [1] (100 nM); 1.01% in experiment [1] (1000 nM); -1.41% in experiment [1] (10000 nM); 106% in experiment [2] (1 nM). Further, the cell viability in experiment [2] (10 nM) was 95.9%; in experiment [2] (100 nM), 86.2%; in experiment [2] (1000 nM), 2.96%; in experiment [2] (10000 nM), -1.17%; in experiment [3] (1 nM), 94.8%; in experiment [3] (10 nM) it was 106%. Besides, the cell viability in experiment [3] (100 nM) was 77.1%; in experiment [3] (1000 nM) it was 3.12%; in experiment [3] (10000 nM) it was -1.21%; in experiment [4] (1 nM) it was 111%; in experiment [4] (10 nM), 89.6%; in experiment [4] (100 nM), 83%. For the same compound, the cell viability was 1.4% in experiment [4] (1000 nM) and -1.27% in experiment [4] (10000 nM).

Usually cell viability stands for a read-out of living cells in per cent, often relative to untreated cells.
